Experimental findings from US12239711B2, “Cereblon ligands and bifunctional compounds comprising the same” (Arvinas Operations, Inc., priority 2014, dated 2025) are described below.

Each structure is given as a SMILES string. Like-named read-outs stand apart in the source and are kept apart here.

In experiment [1] the test system is estrogen responsive element/promoter/luciferase reporter gene. Briefly: ERE Luciferase Assay in T47D-KBluc cells. It counts as cell-based, human. The settings on record: 24 hours, luciferase activity, read-out: Target Engagement IC50. On the procedure: 1. ERE Luciferase Assay for Compounds in Table 5.
T47D-KBluc cells (ATCC® #CRL_2865, T47D human breast cancer cells stably transfected with estrogen responsive element/promoter/luciferase reporter gene) were seeded into 96-well white opaque plates in RPMI growth medium supplemented with 10% fetal bovine serum (FBS) and allowed to adhere overnight in a 37° C. humidified incubator. The following day, cells were treated with PROTACs in a 12-point concentration curve (top final concentration of 300 nM with subsequent concentrations being 3-fold less with 2 pM being the lowest concentration in the assay). Each PROTAC was tested independently in two experiments on 96-well plates. After 24 hours, media was removed and lysis buffer was added to the wells. Following lysis, Bright-Glo™ Luciferase Assay Substrate (Promega, Madison WI) was added and the luciferase activity was measured using a Cytation 3 plate reader (BioTek™, Winooski, VT). Each compound was assayed in duplicate and the activity was calculated as IC50 using GraphPad Prism software (San Diego, CA).

The target in experiment [2] is T1, Estrogen Receptor-Alpha (ERα) (Homo sapiens, UniProt P03372).
T1 construct: endogenous in cells; host or cells: MCF-7 (MCF7) cells
T1 sequence (P03372 1-595): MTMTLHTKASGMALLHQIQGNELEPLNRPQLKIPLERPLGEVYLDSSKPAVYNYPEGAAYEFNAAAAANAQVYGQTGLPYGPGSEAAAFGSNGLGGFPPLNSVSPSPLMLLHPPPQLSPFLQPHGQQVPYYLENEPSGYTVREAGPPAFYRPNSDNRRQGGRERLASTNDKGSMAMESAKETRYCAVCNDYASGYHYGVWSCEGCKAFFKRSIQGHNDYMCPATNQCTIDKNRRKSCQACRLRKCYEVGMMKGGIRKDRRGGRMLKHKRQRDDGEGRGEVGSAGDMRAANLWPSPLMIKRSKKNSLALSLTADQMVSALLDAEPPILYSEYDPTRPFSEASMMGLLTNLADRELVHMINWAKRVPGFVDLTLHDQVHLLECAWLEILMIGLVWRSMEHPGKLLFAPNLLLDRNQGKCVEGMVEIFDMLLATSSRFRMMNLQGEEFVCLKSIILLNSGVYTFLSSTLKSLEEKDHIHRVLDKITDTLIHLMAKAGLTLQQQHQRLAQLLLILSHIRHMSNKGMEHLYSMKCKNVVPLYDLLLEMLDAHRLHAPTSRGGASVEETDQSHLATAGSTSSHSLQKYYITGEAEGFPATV
The experiment in a line: Estrogen Receptor-Alpha (ERα) degradation assay in MCF-7 cells (western blot / In-Cell Western). Format: cell-based. The settings on record: for Dmax: MCF7, read-out: ER Dmax; for DC50: read-out: ER DC50. The protocol:
2. Estrogen Receptor-Alpha (ERα) Degradation Assay in MCF-7 Cells Using Western Blot Method for Table 5.
The exemplary novel ERα degraders were assessed for their activity in degrading ERα in MCF-7 cells via western blot. The assay was carried out in the presence of 10% FBS or high percentage of human or mouse serum. Protocols of the western blot assay are described below.
MCF7 cells were grown in DMEM/F12 with 10% FBS and seeded at 24,000 cells per well in 100 μl into 96-well clear tissue culture plates. The following day, the cells were treated with PROTACs in a […] concentration curve with 100 nM being the top concentration and serial dilutions to make the other concentrations (30 nM, 10 nM, 3 nM, 1 nM, and 0.3 nM). At all concentrations, 0.01% DMSO is the final concentration in the well. The following day, the plates are aspirated, washed with 50 μl of cold PBS. The cells are lysed with 50 μl/well 4° C. Cell Lysis Buffer (Catalog #9803; Cell Signaling Technology, Danvers, MA) (20 mM Tris-HCL (pH 7.5), 150 mM NaCl, 1 mM Na2EDTA, 1 mM EGTA, 1% Triton, 2.5 mM sodium pyrophosphate, 1 mM B-glycerophosphate, 1 mM sodium vanadate, 1 ug/ml leupeptin). Lysates were clarified at 16,000×g for 10 minutes, and 2 μg of protein was subjected to SDS-PAGE analysis and followed by immunoblotting according to standard protocols. The antibodies used were ERα (Cell Signaling Technologies Catalog #8644), and Tubulin (Sigma Catalog #T9026; St. Louis, MO). Detection reagents were Clarity Western ECL substrate (Bio-Rad Catalog #170-5060; Hercules, CA).
Alternatively, MCF7 cells were grown in DMEM/F12 with 10% FBS and seeded at 24,000 cells per well in 500 μl in 24-well clear tissue culture plates. The following day, the cells were treated with PROTACs in a 5-point concentration curve (100 nM, 33 nM, 11 nM, 3.7 nM, and 1.2 nM) in the presence of 0.01% DMSO. After 72 hours, the wells are aspirated and washed with 500 μl of PBS. The cells are lysed with 100 μl/well 4° C. Cell Lysis Buffer (Catalog #9803; Cell Signaling Technology, Danvers, MA) (20 mM Tris-HCL (pH 7.5), 150 mM NaCl, 1 mM Na2EDTA, 1 mM EGTA, 1% Triton, 2.5 mM sodium pyrophosphate, 1 mM B-glycerophosphate, 1 mM sodium vanadate, 1 ug/ml leupeptin). Lysates were clarified at 16,000×g for 10 minutes, and 2 μg of protein was subjected to SDS-PAGE analysis and followed by immunoblotting according to standard protocols. The antibodies used were ERα (Cell Signaling Technologies Catalog #8644), and Tubulin (Sigma Catalog #T9026; St. Louis, MO). Detection reagents were Clarity Western ECL substrate (Bio-Rad Catalog #170-5060; Hercules, CA).
3. Estrogen Receptor-Alpha (ERα) Degradation Assay Using In-Cell Western™ Assay for Table 5.
Degradation of ERα by claimed compounds were determined in MCF7 cells using an In-Cell Western™ assay. Briefly, MCF7 cells were plated in 96-well plates (2000 cells per well in 100 μl media) and incubated at 37° C. under an atmosphere of 5% CO2 in a humidified incubator overnight. One-hundred (100) μl of media containing test compound (at 2× concentration) was added to the appropriate wells to provide 11 serially decreasing concentrations (top final concentration, 1 μM then 3-fold less for the next 10 concentrations); a vehicle control (DMSO) was also added for each compound. For each experiment, all compounds were assayed in duplicate plates. Cells were then incubated for 3 or 5 days in the above-mentioned environment. The assay was terminated by removal of media, a single wash with ice-cold PBS and the addition of 50 μl paraformaldehyde (PFA: 4% in PBS). After 15 minutes in PFA at room temperature, the cells were permeabilized in Tris-phosphate-buffered saline with Tween (0.1%) (TBST) supplemented with Triton X-100 (0.5%) for 15 minutes. Cells were then blocked in BSA (TBST with BSA, 3%) for one hour. […]
A general note: A western blot detects proteins with antibodies after separation by electrophoresis.

For the compound `COCCOc1c(N2CCN(CC3CCN(c4ccc([C@@H]5c6ccc(O)cc6CC[C@@H]5c5ccccc5)cc4)CC3)CC2)ccc2c1CN(C1CCC(=O)NC1=O)C2=O` (stereo partly drawn) [compound 11, 3-[5-[4-[[1-[4-[(1R,2S)-6-hydroxy-2-phenyl-tetralin-1-yl]phenyl]-4-piperidyl]methyl]piperazin-1-yl]-4-(2-methoxyethoxy)-1-oxo-isoindolin-2-yl]piperidine-2,6-dione], the IC50 (usually the concentration at which inhibition is half-maximal) in experiment [1] (Homo sapiens) amounted to 2 nM. In experiment [2], the Dmax (as a rule, the largest share of the target that was removed) lay in the range of 50 to 75% and the half-maximal degradation concentration (DC50) (usually the concentration giving 50% degradation) lay within 1 to 10 nM.

In the case of `COc1cc(N2CCN(CCCC(F)(F)COc3ccc([C@@H]4c5ccc(O)cc5CC[C@@H]4c4ccccc4)cc3)CC2)cc2c1C(=O)N(C1CCC(=O)NC1=O)C2` (stereo partly drawn) [compound 12, 3-[5-[4-[4,4-difluoro-5-[4-[(1R,2S)-6-hydroxy-2-phenyl-tetralin-1-yl]phenoxy]pentyl]piperazin-1-yl]-7-methoxy-1-oxo-isoindolin-2-yl]piperidine-2,6-dione], the IC50 in experiment [1] (Homo sapiens) worked out at 1 nM. In experiment [2], the Dmax is at least 75% and the 50% degradation concentration (DC50) is below 1 nM.

For `COc1cc(N2CCN(CCCCCOc3ccc([C@@H]4c5ccc(O)cc5CC[C@@H]4c4ccccc4)cc3)CC2)cc2c1C(=O)N([C@@H]1CCC(=O)NC1=O)C2` [compound 13, (3R)-3-[5-[4-[5-[4-[(1R,2S)-6-hydroxy-2-phenyl-tetralin-1-yl]phenoxy]pentyl]piperazin-1-yl]-7-methoxy-1-oxo-isoindolin-2-yl]piperidine-2,6-dione], in experiment [1] (Homo sapiens), the IC50 came to 0.37 nM. Moreover, in experiment [2], the maximal degradation (Dmax) is at least 75% and the 50% degradation concentration (DC50) was below 1 nM.

As for `COc1cc(N2CCN(CCCCCOc3ccc([C@@H]4c5ccc(O)cc5CC[C@@H]4c4ccccc4)cc3)CC2)cc2c1C(=O)N([C@H]1CCC(=O)NC1=O)C2` [compound 14, (3S)-3-[5-[4-[5-[4-[(1R,2S)-6-hydroxy-2-phenyl-tetralin-1-yl]phenoxy]pentyl]piperazin-1-yl]-7-methoxy-1-oxo-isoindolin-2-yl]piperidine-2,6-dione], the IC50 in experiment [1] (Homo sapiens) came to 0.49 nM. For the same compound, in experiment [2], the maximal degradation (Dmax) was at least 75% and the half-maximal degradation concentration (DC50) was below 1 nM.

With `COc1cc(N2CCN(CC3CCN(c4ccc([C@@H]5c6ccc(O)cc6CC[C@@H]5c5ccccc5)cc4)CC3)CC2)cc2c1C(=O)N(C1CCC(=O)NC1=O)C2` (stereo partly drawn) [compound 15, 3-[5-[4-[[1-[4-[(1R,2S)-6-hydroxy-2-phenyl-tetralin-1-yl]phenyl]-4-piperidyl]methyl]piperazin-1-yl]-7-methoxy-1-oxo-isoindolin-2-yl]piperidine-2,6-dione], the IC50 in experiment [1] (Homo sapiens) came out at 1.7 nM. Besides, in experiment [2], the Dmax is at least 75% and the DC50 is below 1 nM.

With `COc1cc(N2CCN(C3CC4CC(Oc5ccc([C@@H]6c7ccc(O)cc7CC[C@@H]6c6ccc(F)cc6)cc5)CC4C3)CC2)cc2c1C(=O)N(C1CCC(=O)NC1=O)C2` (stereo partly drawn) [compound 16, 3-[5-[4-[5-[4-[(1R,2S)-2-(4-fluorophenyl)-6-hydroxy-tetralin-1-yl]phenoxy]-1,2,3,3a,4,5,6,6a-octahydropentalen-2-yl]piperazin-l-yl]-7-methoxy-1-oxo-isoindolin-2-yl]piperidine-2,6-dione], the IC50 in experiment [1] came to 0.82 nM. In experiment [2], the “ER Dmax” value is reported as “B (50 <= B < 75)” and the half-maximal degradation concentration (DC50) is below 1 nM.

As for `COc1cc(N2CCN(Cc3cccc(COc4ccc([C@@H]5c6ccc(O)cc6CC[C@@H]5c5ccccc5)cc4)n3)CC2)cc2c1C(=O)N(C1CCC(=O)NC1=O)C2` (stereo partly drawn) [compound 17, 3-[5-[4-[[6-[[4-[(1R,2S)-6-hydroxy-2-phenyl-tetralin-1-yl]phenoxy]methyl]-2-pyridyl]methyl]piperazin-1-yl]-7-methoxy-1-oxo-isoindolin-2-yl]piperidine-2,6-dione], the 50% inhibitory concentration (IC50) in experiment [1] (Homo sapiens) was 1.5 nM. For the same compound, in experiment [2], the maximal degradation (Dmax) lay within 50 to 75% and the 50% degradation concentration (DC50) is 1 to 10 nM.

With `COc1cc(N2CCN(CC3CCN(c4c(F)cc([C@H]5c6ccc(O)cc6CC[C@H]5c5ccccc5)cc4F)CC3)CC2)cc2c1C(=O)N(C1CCC(=O)NC1=O)C2` (stereo partly drawn) [compound 18, 3-(5-{4-[(1-{2,6-difluoro-4-[(1S,2R)-6-hydroxy-2-phenyl-1,2,3,4-tetrahydronaphthalen-1-yl]phenyl}piperidin-4-yl)methyl]piperazin-1-yl}-7-methoxy-1-oxo-2,3-dihydro-1H-isoindol-2-yl)piperidine-2,6-dione], the half-maximal inhibitory concentration (IC50) in experiment [1] (Homo sapiens) was found to be 17.5 nM. Also, in experiment [2], the Dmax fell in the range of 50 to 75% and the 50% degradation concentration (DC50) fell in the range of 1 to 10 nM.

Turning to `COc1cc(N2CCN(CC3CCN(c4c(F)cc([C@@H]5c6ccc(O)cc6CC[C@@H]5c5ccccc5)cc4F)CC3)CC2)cc2c1C(=O)N(C1CCC(=O)NC1=O)C2` (stereo partly drawn) [compound 19, 3-(5-(4-((1-(2,6-difluoro-4-((1R,2S)-6-hydroxy-2-phenyl-1,2,3,4-tetrahydronaphthalen-1-yl)phenyl)piperidin-4-yl)methyl)piperazin-1-yl)-7-methoxy-1-oxoisoindolin-2-yl)piperidine-2,6-dione], the half-inhibitory concentration (IC50) in experiment [1] (Homo sapiens) turned out to be 4.5 nM. In addition, in experiment [2], the maximal degradation (Dmax) is at least 75% and the 50% degradation concentration (DC50) is 1 to 10 nM.

Regarding `O=C1CCC(N2Cc3cc(N4CCN(CCCCCOc5ccc([C@@H]6c7ccc(O)cc7CC[C@@H]6c6ccccc6)cc5)CC4)cc(OC(F)F)c3C2=O)C(=O)N1` (stereo partly drawn) [compound 20, 3-[7-(difluoromethoxy)-5-[4-[5-[4-[(1R,2S)-6-hydroxy-2-phenyl-tetralin-1-yl]phenoxy]pentyl]piperazin-1-yl]-1-oxo-isoindolin-2-yl]piperidine-2,6-dione], the IC50 in experiment [1] (Homo sapiens) came out at 1.2 nM. In experiment [2], the Dmax lay within 50 to 75% and the DC50 was 1 to 10 nM.
